Values quoted from earlier work, collected in US20200246411A1, “ANTI-DIARRHOEAL HERBAL COMPOSITIONS” (SRH NUTRITION LLP, priority 2017, published 2020).

Conditions: conventional drug use

Compound | disadvantages / adverse reactions
CCOC(=O)C1(c2ccccc2)CCN(CCC(C#N)(c2ccccc2)c2ccccc2)CC1 [Diphenoxylate] | Therapeutic doses induce adverse reactions in the CNS (confusion,
CN(C)C(=O)C(CCN1CCC(O)(c2ccc(Cl)cc2)CC1)(c1ccccc1)c1ccccc1 [Loperamide] | Frequent adverse reactions induced are hypersensibility reactions
[Bi] [Bismuth] | Causes adverse reactions (dizziness, cephalea, constipation, dark stools,
COc1ccc2c3c1O[C@H]1[C@@H](O)C=C[C@H]4[C@@H](C2)N(C)CC[C@@]341 [Codeine] | Produces secondary effects such as nausea, dizziness and acts against
CC(=O)SCC(Cc1ccccc1)C(=O)NCC(=O)OCc1ccccc1 (centres unmarked) [Racecadotril] | Cause some adverse reactions such as hypokalemia, bronchospasm,
